The record followed here is paper PMC6149889, “Synthesis, Analysis, Cholinesterase-Inhibiting Activity and Molecular Modelling Studies of 3-(Dialkylamino)-2-hydroxypropyl 4-[(Alkoxy-carbonyl)amino]benzoates and Their Quaternary Ammonium Salts” (Molecules : A Journal of Synthetic Chemistry and Natural …, 2017).

Each structure is given as a SMILES string. Read-outs that look alike come from different tables or passages of the source.

The IC50 is the concentration needed to halve the response being measured.

One experiment concerns the target AChE (electric eel) (Electrophorus electricus, UniProt O42275). Briefly: Ellman assay, 96-well, […] nm. In kind it is biochemical. On the technique in general: Ellman's reagent forms a yellow product with free thiols.
For a further experiment, the target named is T1, BuChE (equine serum) (Equus caballus, UniProt P81908).
T1 construct: gene BCHE
Briefly: Ellman assay, 96-well, […] nm. It counts as biochemical.

T1 sequence (P81908 whole entry): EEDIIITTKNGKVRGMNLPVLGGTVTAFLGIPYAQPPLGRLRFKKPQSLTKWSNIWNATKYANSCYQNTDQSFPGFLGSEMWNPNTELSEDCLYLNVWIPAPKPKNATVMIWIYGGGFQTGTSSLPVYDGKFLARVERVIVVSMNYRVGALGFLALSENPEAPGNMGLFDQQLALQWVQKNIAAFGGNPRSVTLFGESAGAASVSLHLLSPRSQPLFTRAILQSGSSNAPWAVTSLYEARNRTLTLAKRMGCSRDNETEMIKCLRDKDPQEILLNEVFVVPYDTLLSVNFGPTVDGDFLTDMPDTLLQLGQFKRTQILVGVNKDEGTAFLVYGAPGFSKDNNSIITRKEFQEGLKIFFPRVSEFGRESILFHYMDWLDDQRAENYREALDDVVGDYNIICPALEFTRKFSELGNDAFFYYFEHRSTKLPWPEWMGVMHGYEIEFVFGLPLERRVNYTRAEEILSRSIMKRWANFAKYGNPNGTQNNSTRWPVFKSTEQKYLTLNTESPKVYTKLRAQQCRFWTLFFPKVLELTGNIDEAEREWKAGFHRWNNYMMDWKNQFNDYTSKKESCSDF
Chain of AChE (electric eel) (O42275 24-633): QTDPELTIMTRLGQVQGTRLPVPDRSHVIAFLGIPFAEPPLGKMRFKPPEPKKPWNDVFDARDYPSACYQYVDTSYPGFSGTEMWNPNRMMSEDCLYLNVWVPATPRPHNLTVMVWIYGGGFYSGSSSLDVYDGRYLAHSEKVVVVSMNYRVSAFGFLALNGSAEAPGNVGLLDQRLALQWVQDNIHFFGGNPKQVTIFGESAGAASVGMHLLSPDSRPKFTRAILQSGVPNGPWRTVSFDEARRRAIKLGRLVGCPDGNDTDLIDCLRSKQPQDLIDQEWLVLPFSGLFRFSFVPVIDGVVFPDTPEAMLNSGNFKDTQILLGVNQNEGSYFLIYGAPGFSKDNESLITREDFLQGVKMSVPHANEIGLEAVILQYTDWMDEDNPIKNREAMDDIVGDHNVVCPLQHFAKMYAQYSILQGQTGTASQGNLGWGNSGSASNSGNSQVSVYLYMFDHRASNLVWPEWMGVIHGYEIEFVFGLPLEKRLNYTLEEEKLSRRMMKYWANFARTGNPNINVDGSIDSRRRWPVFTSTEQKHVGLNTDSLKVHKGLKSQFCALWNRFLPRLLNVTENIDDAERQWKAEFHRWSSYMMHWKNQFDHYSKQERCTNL

Turning to `COC(=O)Nc1ccc(C(=O)OCC(O)CN(C)C)cc1` (stereo not drawn) [5a, (2-Hydroxy-3-{4-[(methoxycarbonyl)amino]benzoyloxy}propyl)dimethylammonium chloride], the IC50 against AChE (electric eel) and on BuChE (equine serum) was above 100 µM each time.
In the case of `CCOC(=O)Nc1ccc(C(=O)OCC(O)CN(C)C)cc1` (stereo not drawn) [5b, (3-{4-[(ethoxycarbonyl)amino]benzoyloxy}-2-hydroxypropyl)dimethylammonium chloride], the IC50 at AChE (electric eel) and on BuChE (equine serum) was above 100 µM in each case.
With `CCCOC(=O)Nc1ccc(C(=O)OCC(O)CN(C)C)cc1` (stereo not drawn) [5c, (2-Hydroxy-3-{4-[(propoxycarbonyl)amino]benzoyloxy}propyl)dimethylammonium chloride], the IC50 on AChE (electric eel) (read-out: AChE IC50) and against BuChE (equine serum) was above 100 µM throughout.
As to `CCCCOC(=O)Nc1ccc(C(=O)OCC(O)CN(C)C)cc1` (stereo not drawn) [5d, (3-{4-[(Butoxycarbonyl)amino]benzoyloxy}-2-hydroxypropyl)dimethylammonium chloride], the IC50 at AChE (electric eel) (read-out: AChE IC50) and against BuChE (equine serum) was above 100 µM throughout.
Turning to `CCN(CC)CC(O)COC(=O)c1ccc(NC(=O)OC)cc1` (stereo not drawn) [5e, Diethyl-(2-hydroxy-3-{4-[(methoxycarbonyl)amino]benzoyloxy}propyl)ammonium chloride], the IC50 at AChE (electric eel) (read-out: AChE IC50) and on BuChE (equine serum) was above 100 µM throughout.
On to `CCOC(=O)Nc1ccc(C(=O)OCC(O)CN(CC)CC)cc1` (stereo not drawn) [5f, (3-{4-[(Ethoxycarbonyl)amino]benzoyloxy}-2-hydroxypropyl)diethylammonium chloride], for which the IC50 at AChE (electric eel) and against BuChE (equine serum) was above 100 µM throughout.
As for `COC(=O)Nc1ccc(C(=O)OCC(O)C[N+](C)(C)C)cc1` (stereo not drawn) [6a, (2-Hydroxy-3-{4-[(methoxycarbonyl)amino]benzoyloxy}propyl)trimethylammonium iodide], the IC50 on AChE (electric eel) and against BuChE (equine serum) was above 100 µM in each case.
Turning to `CC[N+](C)(C)CC(O)COC(=O)c1ccc(NC(=O)OC)cc1` (stereo not drawn) [6b, Ethyl(2-hydroxy-3-{4-[(methoxycarbonyl)amino]benzoyloxy}propyl)dimethylammonium iodide], the IC50 on AChE (electric eel) (read-out: AChE IC50) is 100 µM; at BuChE (equine serum), above 100 µM.
`COC(=O)Nc1ccc(C(=O)OCC(O)C[N+](C)(C)C(C)C)cc1` (stereo not drawn) [6c, (2-Hydroxy-3-{4-[(methoxycarbonyl)amino]benzoyloxy}propyl)dimethyl(propan-2-yl)ammonium iodide]: the IC50 against AChE (electric eel) and at BuChE (equine serum) was above 100 µM each time.
On to `CCOC(=O)Nc1ccc(C(=O)OCC(O)C[N+](C)(C)C)cc1` (stereo not drawn) [6d, (3-{4-[(Ethoxycarbonyl)amino]benzoyloxy}-2-hydroxypropyl)trimethylammonium iodide], for which the IC50 at AChE (electric eel) (read-out: AChE IC50) and against BuChE (equine serum) was above 100 µM each time.
Consider `CCOC(=O)Nc1ccc(C(=O)OCC(O)C[N+](C)(C)CC)cc1` (stereo not drawn) [6e, (3-{4-[(Ethoxycarbonyl)amino]benzoyloxy}-2-hydroxypropyl)(ethyl)dimethylammonium iodide], for which the IC50 at AChE (electric eel) and against BuChE (equine serum) was above 100 µM in each case.
Take `CCOC(=O)Nc1ccc(C(=O)OCC(O)C[N+](C)(CC)CC)cc1` (stereo not drawn) [6f, (3-{4-[(Ethoxycarbonyl)amino]benzoyloxy}-2-hydroxypropyl)diethylmethylammonium iodide]: the IC50 is 56 µM at AChE (electric eel) (read-out: AChE IC50) and above 100 µM at BuChE (equine serum).
Turning to `CCCOC(=O)Nc1ccc(C(=O)OCC(O)C[N+](C)(C)C)cc1` (stereo not drawn) [6g, (2-Hydroxy-3-{4-[(propoxycarbonyl)amino]benzoyloxy}propyl)trimethylammonium iodide], the IC50 at AChE (electric eel) (read-out: AChE IC50) and against BuChE (equine serum) was above 100 µM each time.
For `CCCOC(=O)Nc1ccc(C(=O)OCC(O)C[N+](C)(CC)CC)cc1` (stereo not drawn) [6h, Diethyl (2-hydroxy-3-{4-[(propoxycarbonyl)amino]benzoyloxy}propyl)methylammonium iodide], the figures for the IC50 against AChE (electric eel) and against BuChE (equine serum) were 58 µM and above 100 µM, respectively.
For the compound `CCCCOC(=O)Nc1ccc(C(=O)OCC(O)C[N+](C)(C)C)cc1` (stereo not drawn) [6i, (3-{4-[(Butoxycarbonyl)amino]benzoyloxy}-2-hydroxypropyl)trimethylammonium iodide], the IC50 against AChE (electric eel) and against BuChE (equine serum) was above 100 µM each time.
